From US20100099614A1, “Antimicrobial Peptides and Methods of Use” (priority 2008, published 2010)

Assays:
[1] = Peptide hydrophobicity by RP-HPLC retention; format: physicochemical; conditions: 80° C., polar face substitution
Procedure: Peptide Synthesis and Purification—Syntheses of the peptides were carried out by solid-phase peptide synthesis using t-butyloxycarbonyl chemistry and MBHA (4-methylbenzhydrylamine) resin (0.97 mmol/g), followed by cleavage of the peptide from the resin as described previously (117-119). However, it is understood in the art that there are other suitable instruments and methods for automated or manual peptide synthesis that could be employed to produce the peptides described herein. Peptide purification was performed by reversed-phase high-performance liquid chromatography (RP-HPLC) on a Zorbax 300 SB-C8 column (250×9.4 mm I.D.; 6.5 μm particle size, 300 Å pore size; Agilent Technologies, Little Falls, Del.) with a linear AB gradient (0.1% acetonitrile/min) at a flow rate of 2 mL/min, where eluent A was 0.2% aqueous trifluoroacetic acid (TFA), pH 2, and eluent B was 0.2% TFA in acetonitrile, where the shallow 0.1% acetonitrile/min gradient started 12% below the acetonitrile concentration required to elute the peptide on injection of analytical sample using a gradient of 1% acetonitrile/min (113). The purity of the peptides was verified by analytical RP-HPLC as described below and further characterized by mass spectrometry and amino acid analysis. Crude and purified peptides were analyzed on an Agilent 1100 series liquid chromatograph. Runs were performed on a Zorbax 300 SB-C8 column (150×2.1 mm I.D.; 5 μm particle size, 300 Å pore size) from Agilent Technologies using a linear AB gradient (1% acetonitrile/min) and a flow rate of 0.25 mL/min, where eluent A was 0.2% aqueous TFA, pH 2, and eluent B was 0.2% TFA in acetonitrile.
Analytical RP-HPLC of Peptides—Peptides were analyzed on an Agilent 1100 series liquid chromatograph (Little Falls, Del.). Runs were performed on a Zorbax 300 SB-C8 column (150×2.1 mm I.D.; 5 μm particle size, 300 Å pore size) from Agilent Technologies using linear AB gradient (1% acetonitrile/min) and a flow rate of 0.25 ml/min, where solvent A was 0.05% aqueous TFA, pH 2 and solvent B was 0.05% TFA in acetonitrile. Temperature profiling analyses were performed in 3° C. increments, from 5° C. to 80° C.

[2] = Helical structure by circular dichroism spectroscopy; format: physicochemical
Procedure: The mean residue molar ellipticities of peptides were determined by circular dichroism (CD) spectroscopy, using a Jasco J-810 spectropolarimeter (Easton, Md.) at 5° C. under benign (non-denaturing) conditions (50 mM NaH2PO4/Na2HPO4/100 mM KCl, pH 7.0), hereafter referred to as benign buffer, as well as in the presence of an α-helix inducing solvent, 2,2,2-trifluoroethanol, TFE, (50 mM NaH2PO4/Na2HPO4/[…], pH 7.0 buffer/50% TFE). A 10-fold dilution of an approximately […] stock solution of the peptide analogs was loaded into a 0.1 cm quartz cell and its ellipticity scanned from 195 to 250 nm. The values of molar ellipticities of the peptide analogs at a wavelength of 222 nm were used to estimate the relative α-helicity of the peptides.

[3] = CD temperature denaturation study; format: physicochemical; conditions: 50% TFE
Procedure: CD Temperature Denaturation Study of Peptide V681—The native peptide V681 was dissolved in 0.05% aqueous TFA containing 50% TFE, pH 2, loaded into a 0.02 cm fused silica cell and peptide ellipticity scanned from 190 to 250 nm at temperatures of 5, 15, 25, 35, 45, 55, 65 and 80° C. The spectra at different temperatures were used to mimic the alteration of peptide conformation during temperature profiling analysis in RP-HPLC. The ratio of the molar ellipticity at a particular temperature (t) relative to that at 5° C. ([θ]t−[θ]u)/([θ]5−[θ]u) was calculated and plotted against temperature in order to obtain the thermal melting profiles, where [θ]5 and [θ]u represent the molar ellipticity values for the fully folded and fully unfolded species, respectively. […] was determined in the presence of 8M urea with a value of 1500 deg·cm^2·dmol^−1 to represent a totally random coil state (31). The melting temperature (Tm) was calculated as the temperature at which the α-helix was 50% denatured (([θ]t−[θ]u)/([θ]5−θ[θ]u)=0.5) and the values were taken as a measure of α-helix stability.

Gram-positive bacteria = conditions: gram-positive bacteria

Ac-KWKSFLKTFKSAVKTVLHTALKAISS-NH2 [V681, reference compound]
change in hydrophobicity (RP-HPLC retention) relative to PVL [1]: -0.35 min
[θ]222 in benign conditions ([2]; 100 mM KCl, 50 mM aq. PO4, pH 7): −12,900
[θ]222 in 50% TFE ([2]; 50% TFE): −27,300
α-helical content ([2]; 50% TFE): 94%
α-helical content ([2]; benign conditions): 45%
transition temperature Tm (50% of α-helical structure denatured) [3]: 79.3 °C
geometric mean MIC (Gram-positive bacteria): 6.3 µg/mL
